Values belong to the molecule of their own block, whether it stands above or below them. No end group written: not given here.
What was measured:
[1] = target: MIK2 ectodomain (MIK2^ECD, residues 1–709) (Arabidopsis thaliana) (UniProt Q8VZG8); assay: ITC; 200 μM SCOOP12 in the syringe injected into 20 μM MIK2 ectodomain in the cell; 25 °C; 20 mM sodium citrate pH 5.0, 150 mM NaCl; N fitted to 1
A. thaliana seedlings = assay: Seedling growth inhibition (fresh weight); type: in vivo, Arabidopsis thaliana; conditions: mock mean = 1
Method: Four-day-old seedlings growing on MS plates were transferred individually into separate wells of transparent 48-well tissue culture plates (Greiner Bio-One) containing 500 μL of liquid MS media with/without elicitor addition. The plates were then transferred back to the growth conditions for an additional 10 days before seedlings were blot-dried and weighed.

[2] = target: MIK2–SCOOP12 complex (MIK2 ectodomain with SCOOP12 peptide, formed beforehand in the ITC cell) (Arabidopsis thaliana) (UniProt Q8VZG8); assay: ITC; 200 µM BAK1 ectodomain titrated onto the MIK2–SCOOP12 complex in the cell; 25 °C; 20 mM sodium citrate pH 5.0, 150 mM NaCl; N fitted to 1

MIK2 ectodomain (MIK2^ECD, residues 1–709) (Arabidopsis thaliana), sequence (Q8VZG8 44-709): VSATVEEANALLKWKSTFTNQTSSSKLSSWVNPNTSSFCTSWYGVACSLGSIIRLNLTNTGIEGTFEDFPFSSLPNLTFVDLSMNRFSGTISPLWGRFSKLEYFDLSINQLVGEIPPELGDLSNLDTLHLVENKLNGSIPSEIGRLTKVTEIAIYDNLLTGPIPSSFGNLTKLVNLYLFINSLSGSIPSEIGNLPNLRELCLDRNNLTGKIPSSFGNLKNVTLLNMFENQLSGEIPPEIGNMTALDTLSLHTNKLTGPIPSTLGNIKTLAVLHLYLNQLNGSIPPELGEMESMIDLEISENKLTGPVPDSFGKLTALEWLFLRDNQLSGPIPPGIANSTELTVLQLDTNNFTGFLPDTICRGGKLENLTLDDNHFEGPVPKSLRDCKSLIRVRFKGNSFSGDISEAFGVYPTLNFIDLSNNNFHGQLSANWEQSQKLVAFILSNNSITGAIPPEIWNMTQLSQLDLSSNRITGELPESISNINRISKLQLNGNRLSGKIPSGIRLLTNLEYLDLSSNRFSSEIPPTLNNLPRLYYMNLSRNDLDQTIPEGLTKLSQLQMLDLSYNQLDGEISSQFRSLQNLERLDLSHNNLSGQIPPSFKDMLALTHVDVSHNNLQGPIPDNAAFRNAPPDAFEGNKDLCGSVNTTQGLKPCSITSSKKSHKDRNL

Kd [1]: 4600 nM
Molecule: SERINE RICH ENDOGENOUS PEPTIDE 12 (SCOOP12) synthetic peptide

Molecule: YLPPSKSRKGKGP [SCOOP13]
Seedling fresh weight (Fig3C), relative to mock (A. thaliana seedlings; Col-0, 1 μM, replicate 1): 0.6301 | Seedling fresh weight (Fig3C), relative to mock (A. thaliana seedlings; Col-0, 1 μM, replicate 2): 0.5631 | Seedling fresh weight (Fig3C), relative to mock (A. thaliana seedlings; Col-0, 1 μM, replicate 3): 0.764 | Seedling fresh weight (Fig3C), relative to mock (A. thaliana seedlings; Col-0, 1 μM, replicate 4): 0.8644 | Seedling fresh weight (Fig3C), relative to mock (A. thaliana seedlings; Col-0, 1 μM, replicate 5): 0.9892 | Seedling fresh weight (Fig3C), relative to mock (A. thaliana seedlings; Col-0, 1 μM, replicate 6): 0.5388 | Seedling fresh weight (Fig3C), relative to mock (A. thaliana seedlings; Col-0, 1 μM, replicate 7): 0.6544 | Seedling fresh weight (Fig3C), relative to mock (A. thaliana seedlings; Col-0, 1 μM, replicate 8): 0.7792 | Seedling fresh weight (Fig3C), relative to mock (A. thaliana seedlings; Col-0, 1 μM, replicate 9): 0.7397 | Seedling fresh weight (Fig3C), relative to mock (A. thaliana seedlings; Col-0, 1 μM, replicate 10): 0.831 | Seedling fresh weight (Fig3C), relative to mock (A. thaliana seedlings; Col-0, 1 μM, replicate 11): 0.6483 | Seedling fresh weight (Fig3C), relative to mock (A. thaliana seedlings; Col-0, 1 μM, replicate 12): 0.7549 | Seedling fresh weight (Fig3C), relative to mock (A. thaliana seedlings; Col-0, 10 μM, replicate 1): 0.02426 | Seedling fresh weight (Fig3C), relative to mock (A. thaliana seedlings; Col-0, 10 μM, replicate 2): 0.03639 | Seedling fresh weight (Fig3C), relative to mock (A. thaliana seedlings; Col-0, 10 μM, replicate 3): 0.03942 | Seedling fresh weight (Fig3C), relative to mock (A. thaliana seedlings; Col-0, 10 μM, replicate 4): 0.03336 | Seedling fresh weight (Fig3C), relative to mock (A. thaliana seedlings; Col-0, 10 μM, replicate 5): 0.04246 | Seedling fresh weight (Fig3C), relative to mock (A. thaliana seedlings; Col-0, 10 μM, replicate 6): 0.03033 | Seedling fresh weight (Fig3C), relative to mock (A. thaliana seedlings; Col-0, 10 μM, replicate 7): 0.03639 | Seedling fresh weight (Fig3C), relative to mock (A. thaliana seedlings; Col-0, 10 μM, replicate 8): 0.06975 | Seedling fresh weight (Fig3C), relative to mock (A. thaliana seedlings; Col-0, 10 μM, replicate 9): 0.07278 | Seedling fresh weight (Fig3C), relative to mock (A. thaliana seedlings; Col-0, 10 μM, replicate 10): 0.04549 | Seedling fresh weight (Fig3C), relative to mock (A. thaliana seedlings; Col-0, 10 μM, replicate 11): 0.03942 | Seedling fresh weight (Fig3C), relative to mock (A. thaliana seedlings; Col-0, 10 μM, replicate 12): 0.04852 | Seedling fresh weight (Fig3C), relative to mock (A. thaliana seedlings; mik2-1, 1 μM, replicate 1): 0.9552 | Seedling fresh weight (Fig3C), relative to mock (A. thaliana seedlings; mik2-1, 1 μM, replicate 2): 1.033 | Seedling fresh weight (Fig3C), relative to mock (A. thaliana seedlings; mik2-1, 1 μM, replicate 3): 0.6626 | Seedling fresh weight (Fig3C), relative to mock (A. thaliana seedlings; mik2-1, 1 μM, replicate 4): 0.8038 | Seedling fresh weight (Fig3C), relative to mock (A. thaliana seedlings; mik2-1, 1 μM, replicate 5): 1.026 | Seedling fresh weight (Fig3C), relative to mock (A. thaliana seedlings; mik2-1, 1 μM, replicate 6): 0.9081 | Seedling fresh weight (Fig3C), relative to mock (A. thaliana seedlings; mik2-1, 1 μM, replicate 7): 1.002 | Seedling fresh weight (Fig3C), relative to mock (A. thaliana seedlings; mik2-1, 1 μM, replicate 8): 0.9854 | Seedling fresh weight (Fig3C), relative to mock (A. thaliana seedlings; mik2-1, 1 μM, replicate 9): 1.022 | Seedling fresh weight (Fig3C), relative to mock (A. thaliana seedlings; mik2-1, 1 μM, replicate 10): 1.049 | Seedling fresh weight (Fig3C), relative to mock (A. thaliana seedlings; mik2-1, 1 μM, replicate 11): 1.127 | Seedling fresh weight (Fig3C), relative to mock (A. thaliana seedlings; mik2-1, 1 μM, replicate 12): 1.002 | Seedling fresh weight (Fig3C), relative to mock (A. thaliana seedlings; mik2-1, 10 μM, replicate 1): 1.163 | Seedling fresh weight (Fig3C), relative to mock (A. thaliana seedlings; mik2-1, 10 μM, replicate 2): 0.8385 | Seedling fresh weight (Fig3C), relative to mock (A. thaliana seedlings; mik2-1, 10 μM, replicate 3): 1.18 | Seedling fresh weight (Fig3C), relative to mock (A. thaliana seedlings; mik2-1, 10 μM, replicate 4): 1.075 | Seedling fresh weight (Fig3C), relative to mock (A. thaliana seedlings; mik2-1, 10 μM, replicate 5): 0.8419 | Seedling fresh weight (Fig3C), relative to mock (A. thaliana seedlings; mik2-1, 10 μM, replicate 6): 0.8825 | Seedling fresh weight (Fig3C), relative to mock (A. thaliana seedlings; mik2-1, 10 μM, replicate 7): 1.082 | Seedling fresh weight (Fig3C), relative to mock (A. thaliana seedlings; mik2-1, 10 μM, replicate 8): 0.9738 | Seedling fresh weight (Fig3C), relative to mock (A. thaliana seedlings; mik2-1, 10 μM, replicate 9): 0.9332 | Seedling fresh weight (Fig3C), relative to mock (A. thaliana seedlings; mik2-1, 10 μM, replicate 10): 0.9569 | Seedling fresh weight (Fig3C), relative to mock (A. thaliana seedlings; mik2-1, 10 μM, replicate 11): 0.9941 | Seedling fresh weight (Fig3C), relative to mock (A. thaliana seedlings; mik2-1, 10 μM, replicate 12): 0.896

Kd [2]: 275 nM
B1: BAK1 ectodomain (residues 1–220) (domain or fragment)
chain: NAEGDALSALKNSLADPNKVLQSWDATLVTPCTWFHVTCNSDNSVTRVDLGNANLSGQLVMQLGQLPNLQYLELYSNNITGTIPEQLGNLTELVSLDLYLNNLSGPIPSTLGRLKKLRFLRLNNNSLSGEIPRSLTAVLTLQVLDLSNNPLTGDIPVNGSFSLFTPISFANTKLTPLPASPPPPISPTPPSPAGS
